Measurements published in patent US4888283A, “Selective inhibitors of benzylaminoxidases with respect to other aminoxidases” (priority 1985, dated 1989).

Legend:
[1] = target: T1, DAO from swine kidney (Sus scrofa, UniProt Q9TRC7); assay: Inhibition of diaminoxidase (DAO), isotopic method with 14C-putrescine; assay type: biochemical; settings: 30 minutes pre-incubation; 14C-putrescine 1 mM; mean ± s.e.
T1 construct: DAO from swine kidney, as obtained and purified by the Sigma; purchased Sigma (St. Louis); host or cells: swine kidney
T1 sequence (Q9TRC7 25-755): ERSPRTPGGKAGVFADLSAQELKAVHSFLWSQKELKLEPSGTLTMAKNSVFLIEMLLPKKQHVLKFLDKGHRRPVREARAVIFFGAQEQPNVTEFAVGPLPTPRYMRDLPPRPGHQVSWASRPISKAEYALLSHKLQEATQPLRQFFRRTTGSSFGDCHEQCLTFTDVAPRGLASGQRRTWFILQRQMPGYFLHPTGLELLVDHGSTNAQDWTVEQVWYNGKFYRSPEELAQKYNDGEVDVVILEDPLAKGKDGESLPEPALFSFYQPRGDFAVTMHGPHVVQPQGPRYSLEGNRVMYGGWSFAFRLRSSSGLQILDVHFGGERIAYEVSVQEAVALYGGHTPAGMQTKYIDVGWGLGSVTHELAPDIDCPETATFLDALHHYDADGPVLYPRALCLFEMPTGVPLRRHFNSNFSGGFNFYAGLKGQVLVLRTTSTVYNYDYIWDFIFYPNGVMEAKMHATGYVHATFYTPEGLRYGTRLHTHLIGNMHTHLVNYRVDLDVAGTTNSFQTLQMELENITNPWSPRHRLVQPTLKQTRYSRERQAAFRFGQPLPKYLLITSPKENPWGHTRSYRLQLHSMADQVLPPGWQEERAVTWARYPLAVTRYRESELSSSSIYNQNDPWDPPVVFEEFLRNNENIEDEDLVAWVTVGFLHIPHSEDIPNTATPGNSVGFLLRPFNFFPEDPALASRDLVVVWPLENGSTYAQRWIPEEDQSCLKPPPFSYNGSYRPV
Protocol: The quantitative determination of the diaminoxidases (DAO's) is performed by the isotopic method disclosed by J. Kusche, H. Richter, R. Hesterberg, J. Schmidt, W. Lorenz, (Agents and Actions, 3, 148-156 (1973)) employing ^14 C-putrescine as the substrate at the final concentration of 1 mM.
(§1) Pure BAO obtained from swine plasma by the procedure disclosed by F. Buffoni and H. Blaschko (Proc. Roy. Soc. B 161, 153 (1964)); DAO from swine kidney, as obtained and purified by the Sigma (St. Louis, Md., USA, 0.25 U/mg); purified LAO from swine aorta obtained by the procedure disclosed by F. Buffoni and L. Raimondi (Agents and Actions, 11, 38 (1981)). Rat liver mitochondria obtained by the procedure disclosed by G. W. Schneider and G. H. Hogeboon (J. Biol. Chem., 183, 123 (1950)) were employed as the source of MAO.
(§2) IC50 (M)=The molar concentration of the inhibitor that inhibits 50% of the enzyme activity at a saturating concentration of the substrate. Said concentration is calculated from curves obtained by pre-incubation of the compound for 30 minutes (at 6 different concentrations) with the enzyme before adding the substrate and determining the enzymic rate.
(§3) The repetition of the experiments allows to obtain the average values of the IC50 (M) as well as the relative standard errors.

[2] = system: Pure BAO obtained from swine plasma; assay: Inhibition type on BAO (Lineweaver-Burk); assay type: biochemical; design: key: competitive inhibition; nc: not competitive inhibition; mixed inhibition; settings: 1/v vs. 1/s, 5 substrate concentrations
From the text: as §1
The inhibition type was evaluated by studying the effect of the compound on the enzymic rate (v) at 5 different concentrations of the substrate (s) and plotting the results by the classical procedure as 1/v vs. 1/s according to Lineweaver-Burk.

[3] = system: Pure BAO obtained from swine plasma; assay: Reversibility of BAO inhibition by dialysis; assay type: biochemical; design: key: reversible inhibition; irreversible inhibition; pr: partially reversible inhibition; settings: dialysis of the solution
From the text: as §1
The reversibility of the effect was evaluated showing that the inhibition caused by a certain concentration of the inhibitor (for instance the IC50 value) would be reverted by dialysis of the solution.

[4] = system: MAO (rat liver mitochondria); assay: Inhibition of monoaminoxidases (MAO), isotopic procedure with 14C-beta-phenylethylamine; assay type: biochemical; settings: 30 minutes pre-incubation; 14C-beta-phenylethylamine 1.7 mM; mean ± s.e.
Protocol: The quantitative determination of monoaminoxidases (MAO's) is carried out by the same procedure as the determination of BAO's, but ^14 C-beta-phenylethylamine is employed at the final concentration of 1.7 mM.
as §1, §2, §3

[5] = system: Pure BAO obtained from swine plasma; assay: Compound as the substrate of BAO (production of H2O2); assay type: biochemical; design: key: the compound is the substrate; ns: the compound is not the substrate; settings: 37° C., air
Protocol: (§4) The oxidation of the compound is estimated in all cases by measuring the production of H2 O2. Such operation is carried out within a temperature-controlled bath set at 37° C. and stirred, in the presence of air. The production-of H2 O2 is quantitatively determined by the method of H. P. Lehman, K. H. Schosinsky, M. F. Beeler (Clin. Chem., 20, 1564 (1974)).
as §1

[6] = target: T1, DAO from swine kidney; assay: Compound as the substrate of DAO (production of H2O2); assay type: biochemical; design: key: the compound is the substrate; ns: the compound is not the substrate; settings: 37° C., air
Protocol: as §4, §1

[7] = target: T2, purified LAO from swine aorta (Sus scrofa, UniProt P45845); assay: Inhibition of lysyloxidase (LAO), isotopic procedure with 3H-elastine; assay type: biochemical; settings: 30 minutes pre-incubation; 3H-elastine 0.150 mg/ml
T2 construct: purified LAO from swine aorta; from tissue; host or cells: swine aorta, purified by the procedure of Buffoni and Raimondi (1981)
T2 sequence (P45845 1-249): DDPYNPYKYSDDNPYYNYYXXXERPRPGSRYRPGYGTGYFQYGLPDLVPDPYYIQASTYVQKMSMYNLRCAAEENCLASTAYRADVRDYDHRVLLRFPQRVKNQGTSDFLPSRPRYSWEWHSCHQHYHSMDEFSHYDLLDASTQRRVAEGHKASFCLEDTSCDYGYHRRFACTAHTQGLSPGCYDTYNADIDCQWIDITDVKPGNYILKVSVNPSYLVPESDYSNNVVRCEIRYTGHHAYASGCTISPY
Protocol: The quantitative determination of lysyloxidase (LAO) is carried out by the isotopic procedure of […]. Biochem., 77, 141 (1977)) employing as the substrate ^3 […] prepared as disclosed by […], and G. R. Martin (Proc. Natl. Acad. Sci. USA 61, 708 (1968)) and isolated as disclosed by […]. Smith (Biochemistry, 8, 2940 (1969)). […] Pure BAO obtained from swine plasma by the procedure disclosed by F. Buffoni and H. Blaschko (Proc. Roy. Soc. B 161, 153 (1964)); DAO from swine kidney, as obtained and purified by the Sigma (St. Louis, Md., USA, 0.25 U/mg); purified LAO from swine aorta obtained by the procedure disclosed by F. Buffoni and L. Raimondi (Agents and Actions, 11, 38 (1981)). Rat liver mitochondria obtained by the procedure disclosed by G. W. Schneider and […]. Biol. Chem., 183, 123 (1950)) were employed as the source of MAO. IC50 (M)=The molar concentration of the inhibitor that inhibits 50% of the enzyme activity at a saturating concentration of the substrate. Said concentration is calculated from curves obtained by pre-incubation of the compound for 30 minutes (at 6 different concentrations) with the enzyme before adding the substrate and determining the enzymic rate. The repetition of the experiments allows to obtain the average values of the IC50 (M) as well as the relative standard errors.

[8] = system: MAO (rat liver mitochondria); assay: Compound as the substrate of MAO (production of H2O2); assay type: biochemical; design: key: the compound is the substrate; ns: the compound is not the substrate; settings: 37° C., air
Protocol: as §4, §1

[9] = system: BAO's; settings: background statement, cited from earlier work
[10] = target: Pure BAO obtained from swine plasma; assay: Inhibition of benzylaminoxidase (BAO), isotopic procedure with 14C-benzylamine; assay type: biochemical; settings: 30 minutes pre-incubation; 14C-benzylamine 1,7 mM (saturating); mean ± s.e.
Protocol: The quantitative determination of benzylaminoxidases (BAO's) is carried out by the isotopic procedure disclosed by F. Buffoni and G. Ignesti (Biochem. J.; 145, 369 (1975)) employing ^14 C-benzylamine as the substrate at the final concentration of 1,7 mM.
as §1, §2, §3

SMILES | IC50 [1] [µM] | BAO: inhibition type [2] | BAO: reversibility of the inhibition [3] | IC50 [4] [µM] | BAO: compound as the substrate [5] | DAO: compound as the substrate [6] | IC50 [7] [µM] | MAO: compound as the substrate [8] | IC50 ([9]; read-out: I50 on BAO's) [µM] | Kind of inhibition of BAO's ([9]; high concentrations) | IC50 [10] [µM]
CCCc1cccc(CCC)c1CN.Cl [Example 12, 2,6-di-n-propylbenzylamine hydrochloride] | 1000 | nc | r | 1000 | ns | s weak | 1000 | s | – | – | –
N#CCCN [beta-aminopropionitrile] | – | – | – | – | – | – | – | – | > 10000 | irreversibly | –
COCOc1cccc(OCOC)c1CN.Cl [Example 9, 2,6-bis(methoxymethoxy)benzylamine hydrochloride] | > 10000 | m | r | 22000 ± 60 | s | s | > 1000 | ns | – | – | 0.95
